Patent publication USRE48267E1, “Variants of C-type natriuretic peptide” (priority 2009, dated 2020)
Where a SMILES comes first, the peptide text is derived from it. Bridges are numbered along the chain shown (N, C = ends). The star is where a group is joined. MeO(CH2CH2O)23CH2CH2CO = COCCOCCOCCOCCOCCOCCOCCOCCOCCOCCOCCOCCOCCOCCOCCOCCOCCOCCOCCOCCOCCOCCOCCOCCC(=O)*

Target: T1, NPR-B (Mus musculus, UniProt Q6VVW5)
T1 construct: Murine NIH3T3 cells express endogenously the CNP signaling receptor, NPR-B; endogenous in cells; host or cells: NIH3T3
T1 sequence (Q6VVW5 17-1047): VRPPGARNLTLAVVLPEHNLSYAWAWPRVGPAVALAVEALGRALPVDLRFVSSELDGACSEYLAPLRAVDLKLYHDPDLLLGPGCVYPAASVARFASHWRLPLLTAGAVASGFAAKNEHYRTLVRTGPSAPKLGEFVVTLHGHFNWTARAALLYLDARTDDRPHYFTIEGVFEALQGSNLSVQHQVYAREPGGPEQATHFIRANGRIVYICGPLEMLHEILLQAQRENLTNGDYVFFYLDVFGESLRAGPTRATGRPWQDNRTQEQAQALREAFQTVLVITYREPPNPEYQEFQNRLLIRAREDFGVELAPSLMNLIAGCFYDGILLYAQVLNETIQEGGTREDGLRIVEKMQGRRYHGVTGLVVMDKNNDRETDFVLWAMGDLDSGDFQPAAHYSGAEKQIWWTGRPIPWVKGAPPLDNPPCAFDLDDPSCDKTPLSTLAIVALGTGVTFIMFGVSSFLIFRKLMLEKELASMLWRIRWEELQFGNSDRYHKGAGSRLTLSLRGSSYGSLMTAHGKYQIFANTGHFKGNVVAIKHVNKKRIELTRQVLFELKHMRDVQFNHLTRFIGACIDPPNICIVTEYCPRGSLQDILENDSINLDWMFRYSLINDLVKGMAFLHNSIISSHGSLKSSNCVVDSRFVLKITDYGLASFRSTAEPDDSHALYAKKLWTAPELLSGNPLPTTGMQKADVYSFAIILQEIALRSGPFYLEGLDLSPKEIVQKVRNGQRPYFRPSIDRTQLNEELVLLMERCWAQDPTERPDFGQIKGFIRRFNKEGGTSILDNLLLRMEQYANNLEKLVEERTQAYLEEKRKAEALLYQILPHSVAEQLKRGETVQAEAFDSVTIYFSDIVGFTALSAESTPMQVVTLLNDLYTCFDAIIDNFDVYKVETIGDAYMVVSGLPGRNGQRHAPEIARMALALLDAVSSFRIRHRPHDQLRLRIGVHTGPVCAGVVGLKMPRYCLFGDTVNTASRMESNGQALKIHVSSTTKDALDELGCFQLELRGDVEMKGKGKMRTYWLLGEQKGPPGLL
Assay: stimulation of cGMP production in NIH3T3 cells
Type: cell-based, murine
Settings: NIH3T3 cells
Method: To determine the functional activity of CNP variants, the production of cGMP was measured in NIH3T3 cells exposed to the CNP variants. Murine NIH3T3 cells express endogenously the CNP signaling receptor, NPR-B, which shares 98% protein sequence identity with human NPR-B. NIH3T3 cells were cultured in high glucose Dulbecco's Modified Eagle Medium supplemented with 10% fetal calf serum and antibiotics at 37° C. with 5% CO2). Twenty four to 48 hours prior to signaling, cells were passaged to 12-well plates with a density of 2-5×10^5 cells per well at the time of the assay. CNP variants were resuspended in 1 mM HCl to a stock concentration of 1 mg/mL (455 uM for wtCNP22) and subsequently diluted to a 30 uM working stock solution with phosphate-buffered saline (PBS). Ten-fold serial dilutions were prepared in phosphate-buffered saline. Culture medium was removed from the cells and replaced with 0.4 mL PBS/Dulbecco's modified Eagle medium (50/50, v/v) containing 0.75 mM isobutylmethylxanine. Plates were incubated at 37° C., 5% CO2 for 15 minutes before addition of 0.2 mL CNP variant in PBS and continued incubation at 37° C. for 15 minutes. Reactions were stopped by the addition of 0.2 mL lysis buffer supplied with the CatchPoint cGMP assay kit (Molecular Devices), and cGMP production was determined with the CatchPoint cGMP Assay (Molecular Devices). All stimulation experiments were performed in duplicate.
Tables 1-4 summarize the ability of CNP variants having backbone or side chain modifications, amino acid substitutions, N-terminal amino acid extensions, and/or N-terminal PEGylation, respectively, to stimulate cGMP production in NIH3T3 cells. In all four tables, the values for cGMP production in NIH3T3 cells exposed to 10 nM or 1 uM CNP variant are normalized to cell number and cGMP production in the presence of 1 uM wtCNP22.

CC[C@H](C)[C@@H]1NC(=O)[C@H](CCCNC(=N)N)NC(=O)[C@H](CC(=O)O)NC(=O)[C@H](CC(C)C)NC(=O)[C@H](CCCCN)NC(=O)[C@H](CC(C)C)NC(=O)CNC(=O)[C@H](Cc2ccccc2)NC(=O)[C@@H](NC(=O)CNC(=O)[C@H](CCCNC(=N)N)NC(=O)[C@H](CO)NC(=O)[C@H](CC(C)C)NC(=O)CNC(=O)[C@H](CCCNC(=N)N)NC(=O)[C@H](CCCNC(=N)N)NC(=O)[C@H](CC(N)=O)NC(=O)[C@H](C)NC(=O)CNC(=O)CCOCCOCCOCCOCCOCCOCCOCCOCCOCCOCCOCCOCCOCCOCCOCCOCCOCCOCCOCCOCCOCCOCCOCCOC)CSSC[C@@H](C(=O)O)NC(=O)CNC(=O)[C@H](CC(C)C)NC(=O)CNC(=O)[C@H](CO)NC(=O)[C@H](CCSC)NC(=O)[C@H](CO)NC(=O)CNC1=O [PEO24-GANRR-CNP22(K4R)] ({MeO(CH2CH2O)23CH2CH2CO}-GANRRGLSRGCFGLKLDRIGSMSGLGC-OH; disulfide 11-27)
NPR-B stimulation activity / cGMP production compared with wtCNP22 (in words): stimulated greater cGMP production than PEO24-CNP22 and PEO24-CNP22 (K4R)
